{"source": "patent US20220370466A1", "about": "“REGIMENS FOR TREATING HIV INFECTIONS AND AIDS” (ViiV Healthcare Company, priority 2017, published 2022)", "origin": "cited, not measured here", "key": {"[1]": {"biological_target": "P-gp (Homo sapiens, UniProt P08183)", "sequence (P08183 whole entry)": "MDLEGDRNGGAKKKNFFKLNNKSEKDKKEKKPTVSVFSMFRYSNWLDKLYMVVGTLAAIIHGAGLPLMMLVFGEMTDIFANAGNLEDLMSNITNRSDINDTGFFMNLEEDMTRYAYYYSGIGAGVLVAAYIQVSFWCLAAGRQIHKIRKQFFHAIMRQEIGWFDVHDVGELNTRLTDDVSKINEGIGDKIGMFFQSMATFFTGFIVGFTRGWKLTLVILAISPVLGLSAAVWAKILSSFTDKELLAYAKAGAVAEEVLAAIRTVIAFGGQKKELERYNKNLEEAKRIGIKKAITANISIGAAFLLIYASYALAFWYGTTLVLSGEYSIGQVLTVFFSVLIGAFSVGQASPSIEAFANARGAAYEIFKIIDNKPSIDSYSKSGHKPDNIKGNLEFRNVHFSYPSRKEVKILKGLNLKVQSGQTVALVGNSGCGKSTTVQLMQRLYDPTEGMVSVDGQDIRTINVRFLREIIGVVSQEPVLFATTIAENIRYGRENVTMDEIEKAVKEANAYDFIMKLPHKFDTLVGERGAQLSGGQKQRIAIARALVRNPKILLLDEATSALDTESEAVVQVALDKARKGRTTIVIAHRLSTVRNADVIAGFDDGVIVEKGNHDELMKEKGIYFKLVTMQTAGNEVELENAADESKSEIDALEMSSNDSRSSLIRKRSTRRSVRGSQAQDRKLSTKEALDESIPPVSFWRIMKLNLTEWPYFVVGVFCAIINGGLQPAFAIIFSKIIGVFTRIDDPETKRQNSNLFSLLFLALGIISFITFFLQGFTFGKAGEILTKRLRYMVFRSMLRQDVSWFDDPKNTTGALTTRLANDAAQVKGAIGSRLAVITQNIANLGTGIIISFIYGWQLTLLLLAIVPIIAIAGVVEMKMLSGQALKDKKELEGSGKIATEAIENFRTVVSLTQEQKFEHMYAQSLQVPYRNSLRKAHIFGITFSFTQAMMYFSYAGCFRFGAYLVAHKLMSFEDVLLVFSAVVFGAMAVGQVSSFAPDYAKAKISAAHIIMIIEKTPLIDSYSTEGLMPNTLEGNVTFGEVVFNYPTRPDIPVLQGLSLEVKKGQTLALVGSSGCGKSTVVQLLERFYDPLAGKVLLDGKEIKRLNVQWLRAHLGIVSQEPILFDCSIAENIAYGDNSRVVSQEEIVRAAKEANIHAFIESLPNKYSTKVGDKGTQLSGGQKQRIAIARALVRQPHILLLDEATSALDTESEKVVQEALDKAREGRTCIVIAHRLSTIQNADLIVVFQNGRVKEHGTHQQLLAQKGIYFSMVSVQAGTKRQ", "settings": "in vitro"}, "[2]": {"biological_target": "T1, UGT1A9 (Homo sapiens, UniProt O60656)", "T1 sequence (O60656 26-530)": "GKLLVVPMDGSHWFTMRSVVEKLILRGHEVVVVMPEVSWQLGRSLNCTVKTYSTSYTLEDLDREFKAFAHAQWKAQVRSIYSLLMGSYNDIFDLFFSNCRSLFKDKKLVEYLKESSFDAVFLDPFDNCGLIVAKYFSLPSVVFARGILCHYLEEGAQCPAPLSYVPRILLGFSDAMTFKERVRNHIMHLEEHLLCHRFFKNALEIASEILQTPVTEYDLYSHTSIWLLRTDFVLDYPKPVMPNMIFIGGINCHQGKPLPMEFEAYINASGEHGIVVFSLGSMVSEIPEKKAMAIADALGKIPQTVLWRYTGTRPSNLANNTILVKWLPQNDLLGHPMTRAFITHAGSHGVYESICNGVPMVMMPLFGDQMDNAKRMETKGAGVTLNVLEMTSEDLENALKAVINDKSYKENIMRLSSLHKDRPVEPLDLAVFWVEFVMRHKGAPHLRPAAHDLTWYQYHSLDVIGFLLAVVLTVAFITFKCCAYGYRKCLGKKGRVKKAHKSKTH", "settings": "in vitro"}, "[3]": {"biological_target": "T2, UGT1A3 (Homo sapiens, UniProt P35503)", "T2 sequence (P35503 29-534)": "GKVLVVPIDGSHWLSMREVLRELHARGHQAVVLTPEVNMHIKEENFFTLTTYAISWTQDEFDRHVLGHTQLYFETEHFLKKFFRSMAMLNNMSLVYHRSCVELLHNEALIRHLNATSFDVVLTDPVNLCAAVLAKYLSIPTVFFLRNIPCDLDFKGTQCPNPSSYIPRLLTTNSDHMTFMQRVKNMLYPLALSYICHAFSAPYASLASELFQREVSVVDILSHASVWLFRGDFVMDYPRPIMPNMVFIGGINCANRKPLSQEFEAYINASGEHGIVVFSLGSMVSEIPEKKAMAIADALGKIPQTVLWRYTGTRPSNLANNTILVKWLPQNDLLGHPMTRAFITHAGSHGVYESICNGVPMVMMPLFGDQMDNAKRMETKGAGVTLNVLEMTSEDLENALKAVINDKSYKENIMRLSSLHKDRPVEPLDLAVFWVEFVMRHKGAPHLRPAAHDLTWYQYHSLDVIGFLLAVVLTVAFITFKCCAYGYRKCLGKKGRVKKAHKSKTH", "settings": "in vitro"}, "[4]": {"biological_target": "T3, CYP3A4 (Homo sapiens, UniProt P08684)", "T3 sequence (P08684 whole entry)": "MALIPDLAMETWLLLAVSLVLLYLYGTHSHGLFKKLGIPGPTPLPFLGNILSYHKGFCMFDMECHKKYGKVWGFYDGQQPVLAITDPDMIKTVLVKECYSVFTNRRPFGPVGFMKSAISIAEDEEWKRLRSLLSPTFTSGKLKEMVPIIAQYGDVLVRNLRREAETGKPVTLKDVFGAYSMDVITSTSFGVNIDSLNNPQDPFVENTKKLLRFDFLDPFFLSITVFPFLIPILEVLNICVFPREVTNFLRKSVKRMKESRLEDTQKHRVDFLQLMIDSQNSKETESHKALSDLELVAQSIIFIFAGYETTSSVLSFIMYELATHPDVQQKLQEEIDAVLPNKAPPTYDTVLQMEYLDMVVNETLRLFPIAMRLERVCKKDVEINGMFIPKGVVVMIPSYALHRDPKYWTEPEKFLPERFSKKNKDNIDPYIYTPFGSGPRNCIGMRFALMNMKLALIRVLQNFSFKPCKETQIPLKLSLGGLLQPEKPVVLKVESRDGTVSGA"}, "[5]": {"biological_target": "T4, BCRP (Homo sapiens, UniProt Q9UNQ0)", "T4 sequence (Q9UNQ0 1-655)": "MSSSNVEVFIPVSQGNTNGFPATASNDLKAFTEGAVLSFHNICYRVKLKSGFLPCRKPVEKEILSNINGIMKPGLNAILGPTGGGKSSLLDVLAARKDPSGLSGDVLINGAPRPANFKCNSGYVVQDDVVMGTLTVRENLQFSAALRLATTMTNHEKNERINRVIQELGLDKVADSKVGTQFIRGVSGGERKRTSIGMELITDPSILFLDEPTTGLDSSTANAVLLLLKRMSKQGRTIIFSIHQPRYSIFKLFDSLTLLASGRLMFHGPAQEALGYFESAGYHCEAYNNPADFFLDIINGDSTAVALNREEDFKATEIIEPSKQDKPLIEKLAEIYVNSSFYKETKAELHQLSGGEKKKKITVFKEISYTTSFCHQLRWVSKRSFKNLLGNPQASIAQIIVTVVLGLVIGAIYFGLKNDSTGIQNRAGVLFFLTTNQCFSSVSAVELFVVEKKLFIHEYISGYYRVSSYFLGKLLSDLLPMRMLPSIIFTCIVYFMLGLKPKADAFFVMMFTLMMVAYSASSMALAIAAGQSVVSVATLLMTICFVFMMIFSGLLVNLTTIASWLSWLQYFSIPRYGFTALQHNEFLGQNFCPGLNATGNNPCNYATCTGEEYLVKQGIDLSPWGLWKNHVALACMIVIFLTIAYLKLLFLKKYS", "settings": "in vitro"}, "[6]": {"biological_target": "T5, UGT1A1 (Homo sapiens, UniProt P22309)", "T5 sequence (P22309 26-533)": "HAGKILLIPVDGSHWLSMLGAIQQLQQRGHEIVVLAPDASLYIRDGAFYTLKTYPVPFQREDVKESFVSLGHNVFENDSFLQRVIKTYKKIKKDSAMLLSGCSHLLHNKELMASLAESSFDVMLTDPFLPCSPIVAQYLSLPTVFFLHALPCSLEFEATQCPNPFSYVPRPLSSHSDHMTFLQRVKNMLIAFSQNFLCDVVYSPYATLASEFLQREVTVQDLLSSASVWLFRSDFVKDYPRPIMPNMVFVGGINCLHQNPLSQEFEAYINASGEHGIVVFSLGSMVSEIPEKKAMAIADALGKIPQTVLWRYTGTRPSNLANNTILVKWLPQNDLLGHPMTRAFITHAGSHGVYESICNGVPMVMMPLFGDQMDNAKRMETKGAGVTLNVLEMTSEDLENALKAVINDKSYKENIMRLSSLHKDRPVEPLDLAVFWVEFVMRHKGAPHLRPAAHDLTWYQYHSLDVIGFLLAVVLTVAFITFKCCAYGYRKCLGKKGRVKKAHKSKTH"}, "[7]": {"biological_target": "T3, CYP3A4", "remark": "listed apart in the source"}, "[8]": {"test_system": "cytochrome P450 (CYP) isozymes"}, "[9]": {"test_system": "HIV-1", "settings": "lymphoblastoid cell lines, MAGI-CCR5 cell line, peripheral blood mononuclear cells"}, "[10]": {"test_system": "HIV", "settings": "CD4+ T-cells isolated from thirteen (13) persons"}, "[11]": {"test_system": "HIV", "settings": "monocyte-derived macrophages (MDMs)"}}, "note": "Like-named read-outs stand apart in the source and are kept apart here.", "data": [{"smiles": "O=C(NCc1c(F)cc(F)cc1F)c1cn2c(c(O)c1=O)C(=O)N1[C@H]3CC[C@H](C3)O[C@@H]1C2", "note": "[Bictegravir, (2R,5S,13aR)-8-hidroxi-7,9-dioxo-N-[(2,4,6-trifluorofenil)metil]-2,3,4,5,7,9,13,13a-octahidro-2,5-metanopirido[1′,2′: 4,5]pirazino[2,1-b][1,3]oxazepina-10-carboxamida]", "values": [{"measurement": "substrate of P-gp", "setting": "[1]", "value": "substrate"}, {"measurement": "substrate of UGT1A9", "setting": "[2]", "value": "substrate"}, {"measurement": "substrate of UGT1A3", "setting": "[3]", "value": "substrate"}, {"measurement": "metabolic clearance through CYP3A4", "setting": "[4]", "value": "metabolically cleared"}, {"measurement": "substrate of BCRP", "setting": "[5]", "value": "substrate"}, {"measurement": "metabolic clearance through UGT1A1", "setting": "[6]", "value": "metabolically cleared"}]}, {"smiles": "C[C@@H]1CCO[C@H]2Cn3cc(C(=O)NCc4ccc(F)cc4F)c(=O)c(O)c3C(=O)N12", "note": "[Dolutegravir, (4R,12a5)-N-[(2,4-difluorophenyl)methyl]-7-hydroxy-4-methyl-6,8-dioxo-3 ,4,12,12a-tetrahydro-2H-pyrido[5, 6]pyrazino[2,6-b][1,3]oxazine-9-carboxamide]", "values": [{"measurement": "extent to which the drug is a substrate of CYP3A4", "setting": "[7]", "value": "about 15%"}, {"measurement": "induction or inhibition of cytochrome P450 (CYP) isozymes", "setting": "[8]", "value": "demonstrates induction or inhibition"}]}, {"smiles": "Nc1nc(=O)n([C@@H]2CS[C@H](CO)O2)cc1F", "note": "[Emtricitabine, 5-fluoro-1-(2R,5S)-[2-(hydroxymethyl)-1,3oxathiolan-5-yl]cytosine]", "values": [{"measurement": "EC50 value against HIV-1", "setting": "[9]", "value": "3 to 158", "unit": "ng/mL"}, {"measurement": "EC50", "setting": "[9]; read-out: EC50 value against HIV-1", "value": "0.0013 to 0.64", "unit": "µM"}]}, {"smiles": "CC(C)OC(=O)[C@H](C)N[P@](=O)(CO[C@H](C)Cn1cnc2c(N)ncnc21)Oc1ccccc1", "note": "[TAF, L-alanine, N-[(S)-[[(1R)-2-(6-amino-9H-purin-9-yl)-1methylethoxy]methyl]phenoxyphosphinyl]-, 1-methylethyl ester, (2E)-2-butenedioate (2:1)]", "values": [{"measurement": "EC50", "setting": "[10]; read-out: mean EC50", "value": 0.011, "unit": "µM"}, {"measurement": "EC50", "setting": "[10]; read-out: median EC50", "value": 0.0102, "unit": "µM"}, {"measurement": "EC50", "setting": "[11]; read-out: mean EC50", "value": 0.0097, "unit": "µM"}, {"measurement": "EC50", "setting": "[11]; read-out: median EC50", "value": 0.0103, "unit": "µM"}]}]}
